Data on three compounds can be found in patent publication US4678792A, “Quaternary 3,4-dihydro-isoquinolinium salts” (Dr. Karl Thomae GmbH, priority 1984, dated 1987).

Where two headings read alike, the source gives them in different places.

A word on the inhibition: it is the share of the control response that was lost under treatment.

The subject of one data set is Thrombocyte aggregation. Nature of the data set: Antithrombotic activity: collagen-induced thrombocyte aggregation in platelet-rich plasma after oral administration (Born and Cross). In kind it is in vivo, rat. As to conditions: for inhibition at 10 mg/kg / inhibition at 5 mg/kg: po, read-out: Percentage inhibition of aggregation. How it is done: 1. Antithrombotic activity (see BORN and CROSS, J. Physiol. 170, 397 (1964)):
Groups of three male rats weighing about 500 g are given the test substances, suspended in 1% tylose (A and B) or in distilled water (C), in a volume of 0.2 ml per 100 g of the weight of the animal, by esophageal tube. Shortly before the blood samples are taken (1 hour after administration of the substance) the animals are anesthetised with sodium pentobarbital (50 mg/kg i.p.). After the abdomen has been opened up, the required quantity of blood is taken by puncturing the aorta.
The blood is treated with sodium citrate (0.2% final concentration) to prevent it coagulating. Since the aggregation before and after administration of the substance in rats cannot be measured in the same animal, sets of animals from which the plasma has been pooled are compared. In this way, multiple measurements can be made.
Thrombocyte aggregation is measured in platelet-rich plasma (PRP) (quantity of plasma for each test: 1 ml). In order to obtain the PRP, the blood is centrifuged for 10 minutes at 1,000 to 1,200 revolutions per minute (approx. 150 g). The low-platelet plasma for calibrating the aggregometer is obtained by centrifuging (4,000 rpm for 10 minutes).
The pattern of the decrease in optical density of the platelet suspension after the addition of collagen is measured photometrically and recorded. The height of the curve in mm measured at the moment of maximum light transmittance is the measurement of the intensity of aggregation. A 6-channel aggregometer is used for the measurements.
The quantity of collagen (2 to 5 μl/ml of plasma) is such that an irreversible reaction curve is obtained.
The sets of animals treated with the substance are compared with untreated control groups.

Data set [1] in a line: Tolerability: toxic side effects at the maximum dosages administered. In kind it is in vivo.
A further data set relates to mouse. Nature of the data set: Approximate acute toxicity on the mouse after oral administration. In kind it is in vivo. The note with it: 250 mg/kg oral, group of 10 animals, observation period of 14 days. How it is done: The approximate acute toxicity of substance B is tested on the mouse after oral administration of a dosage of 250 mg/kg to a group of 10 animals.

[2] abbreviates: 10 mg/kg p.o., rat, 1 hour after administration, collagen, control 130 (A), 110 (B).
[3] abbreviates: maximum dosages administered (10 mg/kg p.o.).
Setting [4] is: 5 mg/kg p.o., rat, 1 hour after administration, collagen, control 108 (B), 113 (C).

Take `COc1cc2c(cc1OC)CC[N+](Cc1ccccc1Cl)=C2.O=S(=O)([O-])O` [A, 2-(2-Chlorobenzyl)-6,7-dimethoxy-3,4-dihydro-isoquinolinium hydrogensulphate]: the “Intensity of Aggregation, Height of curve (opt. density), Substance” value (from here on “Intensity of Aggregation”) in the data set on Thrombocyte aggregation (setting [2]) stood at 69 mm. Besides, the inhibition at 10 mg/kg with Thrombocyte aggregation (Rattus norvegicus, 1 h) came to 47%. Besides, the toxic side effects entry in data set [1] (setting [3]) is “do not show any toxic side effects”.

`Clc1ccccc1C[N+]1=Cc2ccccc2CC1.O=S(=O)([O-])O` [B, 2-(2-Chlorobenzyl)-3,4-dihydro-isoquinolinium hydrogensulphate]: the “Intensity of Aggregation” value in the data set on Thrombocyte aggregation (setting [4]) was found to be 0 mm. The “Intensity of Aggregation” value in the data set with Thrombocyte aggregation (setting [2]) was 0 mm. For the same compound, in the data set on Thrombocyte aggregation (Rattus norvegicus, 1 h), the inhibition at 5 mg/kg is 100% and the inhibition at 10 mg/kg stood at 100%. Besides, the “Acute toxicity, deaths” value with mouse is reported as “None of the animals died”. In addition, the toxic side effects result in data set [1] (setting [3]) is listed as “do not show any toxic side effects”.

Consider `COc1cc2c(cc1OC)CC[N+](Cc1cc(OC)c(OC)c(OC)c1)=C2.[Cl-]` [C, 2-(3,4,5-Trimethoxybenzyl)-6,7-dimethoxy-3,4-dihydro-isoquinolinium chloride], for which the “Intensity of Aggregation” value with Thrombocyte aggregation (setting [4]) was 10 mm. For the same compound, the inhibition at 5 mg/kg with Thrombocyte aggregation (5 mg/kg p.o., rat, 1 hour after administration, collagen) was 89%. The toxic side effects result in data set [1] (in vivo, po, 10 mg/kg) was “do not show any toxic side effects”.
